How the values were obtained:
Experiment in all cases: cells
Format in all cases: functional, cell-based, Homo sapiens
NB17 = conditions: Homo sapiens, NB17;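 also: growth inhibition of NB17 cells, read out with a cell viability assay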
Description: SANGER: Inhibition of human NB17 cell growth in a cell viability assay.

CGTH-W-1 = conditions: Homo sapiens, CGTH-W-1;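 also: growth inhibition of human CGTH-W-1 cells measured by cell viability assay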
Description: SANGER: Inhibition of human CGTH-W-1 cell growth in a cell viability assay.

no-11 = conditions: Homo sapiens;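 also: growth inhibition of human NO-11 cells, read out with a cell viability assay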
Description: SANGER: Inhibition of human no-11 cell growth in a cell viability assay.

EW-1 = conditions: Homo sapiens, EW-1
Description: SANGER: Inhibition of human EW-1 cell growth in a cell viability assay.

DJM-1 = conditions: Homo sapiens, DJM-1;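 also: growth inhibition of human DJM-1 cells, read out by a cell viability assay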
Description: SANGER: Inhibition of human DJM-1 cell growth in a cell viability assay.

OCI-AML2 = conditions: Homo sapiens, OCI-AML2;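 also: growth inhibition of OCI-AML2 cells, read out with a cell viability assay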
Description: SANGER: Inhibition of human OCI-AML2 cell growth in a cell viability assay.

LS-123 = conditions: Homo sapiens, LS-123
Description: SANGER: Inhibition of human LS-123 cell growth in a cell viability assay.

SCH = conditions: Homo sapiens, SCH;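 also: growth inhibition of human SCH cells, read out in a cell viability assay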
Description: SANGER: Inhibition of human SCH cell growth in a cell viability assay.

Ramos-2G6-4C10 = conditions: Homo sapiens, Ramos-2G6-4C10;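 also: growth inhibition of the cell line, measured by a cell viability read-out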
Description: SANGER: Inhibition of human Ramos-2G6-4C10 cell growth in a cell viability assay.

RPMI-8226 = conditions: Homo sapiens, RPMI-8226
Description: SANGER: Inhibition of human RPMI-8226 cell growth in a cell viability assay.

NCI-H1770 = conditions: Homo sapiens, NCI-H1770;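 also: growth inhibition of NCI-H1770 cells determined with a viability readout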
Description: SANGER: Inhibition of human NCI-H1770 cell growth in a cell viability assay.

SW 954 = conditions: Homo sapiens, SW 954;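 also: growth inhibition of SW954 human cancer cells, read out as cell viability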
Description: SANGER: Inhibition of human SW954 cell growth in a cell viability assay.

GAK = conditions: Homo sapiens, GAK;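 also: cell growth inhibition read out by a cell viability assay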
Description: SANGER: Inhibition of human GAK cell growth in a cell viability assay.

U-266 = conditions: Homo sapiens, U-266
Description: SANGER: Inhibition of human U-266 cell growth in a cell viability assay.

SF-268 = conditions: Homo sapiens, SF-268;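 also: growth inhibition of SF-268 cells determined with a cell viability assay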
Description: SANGER: Inhibition of human SF268 cell growth in a cell viability assay.

UACC-257 = conditions: Homo sapiens, UACC-257
Description: SANGER: Inhibition of human UACC-257 cell growth in a cell viability assay.

TE-6 = conditions: Homo sapiens, TE-6;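 also: growth inhibition of TE-6 cells, read out with a cell viability assay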
Description: SANGER: Inhibition of human TE-6 cell growth in a cell viability assay.

MOLT-4 = conditions: Homo sapiens, MOLT-4;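 also: growth inhibition of MOLT-4 cells, determined with a cell viability readout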
Description: SANGER: Inhibition of human MOLT-4 cell growth in a cell viability assay.

DU-4475 = conditions: Homo sapiens, DU-4475
Description: SANGER: Inhibition of human DU-4475 cell growth in a cell viability assay.

OCUB-M = conditions: Homo sapiens, OCUB-M;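 also: growth inhibition of the cancer cell line, read out through a cell viability assay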
Description: SANGER: Inhibition of human OCUB-M cell growth in a cell viability assay.

KINGS-1 = conditions: Homo sapiens, KINGS-1;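 also: cell viability assay measuring suppression of KINGS-1 cell growth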
Description: SANGER: Inhibition of human KINGS-1 cell growth in a cell viability assay.

IST-MEL1 = conditions: Homo sapiens, IST-MEL1;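 also: growth inhibition of the cell line, read out with a cell viability assay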
Description: SANGER: Inhibition of human IST-MEL1 cell growth in a cell viability assay.

NCI-H1304 = conditions: Homo sapiens, NCI-H1304;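 also: growth inhibition of the cancer cell line, measured in a cell viability assay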
Description: SANGER: Inhibition of human NCI-H1304 cell growth in a cell viability assay.

RXF 393 = conditions: Homo sapiens, RXF 393;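 also: growth inhibition of human RXF 393 cells, read out with a cell viability assay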
Description: SANGER: Inhibition of human RXF393 cell growth in a cell viability assay.

D-247MG = conditions: Homo sapiens, D-247MG
Description: SANGER: Inhibition of human D-247MG cell growth in a cell viability assay.

NB10 = conditions: Homo sapiens, NB10;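 also: growth inhibition of NB10 cells, read out by a cell viability assay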
Description: SANGER: Inhibition of human NB10 cell growth in a cell viability assay.

LOX IMVI = conditions: Homo sapiens, LOX IMVI
Description: SANGER: Inhibition of human LOXIMVI cell growth in a cell viability assay.

SK-MEL-2 = conditions: Homo sapiens, SK-MEL-2;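 also: growth inhibition of human SK-MEL-2 cells measured with a cell viability assay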
Description: SANGER: Inhibition of human SK-MEL-2 cell growth in a cell viability assay.

RPMI-8866 = conditions: Homo sapiens, RPMI-8866
Description: SANGER: Inhibition of human RPMI-8866 cell growth in a cell viability assay.

PSN1 = conditions: Homo sapiens, PSN1;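 also: suppression of growth of human PSN1 cells, read out by a cell viability assay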
Description: SANGER: Inhibition of human PSN1 cell growth in a cell viability assay.

DMS-79 = conditions: Homo sapiens, DMS-79;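 also: growth inhibition measured with a cell viability assay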
Description: SANGER: Inhibition of human DMS-79 cell growth in a cell viability assay.

KALS-1 = conditions: Homo sapiens, KALS-1;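 also: growth inhibition of KALS-1 cells, determined with a cell viability assay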
Description: SANGER: Inhibition of human KALS-1 cell growth in a cell viability assay.

HCC 2998 = conditions: Homo sapiens, HCC 2998;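 also: growth inhibition of human HCC2998 cells, measured with a cell viability read-out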
Description: SANGER: Inhibition of human HCC2998 cell growth in a cell viability assay.

Mo = conditions: Homo sapiens, Mo
Description: SANGER: Inhibition of human Mo-T cell growth in a cell viability assay.

GB-1 = conditions: Homo sapiens, GB-1;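 also: growth of GB-1 cells judged by a viability assay, IC50 marks the concentration inhibiting growth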
Description: SANGER: Inhibition of human GB-1 cell growth in a cell viability assay.

EW-18 = conditions: Homo sapiens, EW-18;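 also: growth inhibition of EW-18 cells, read out by a cell viability assay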
Description: SANGER: Inhibition of human EW-18 cell growth in a cell viability assay.

L-363 = conditions: Homo sapiens, L-363
Description: SANGER: Inhibition of human L-363 cell growth in a cell viability assay.

BV-173 = conditions: Homo sapiens, BV-173
Description: SANGER: Inhibition of human BV-173 cell growth in a cell viability assay.

NCI-H526 = conditions: Homo sapiens, NCI-H526;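 also: growth inhibition of the human NCI-H526 cell line, measured by a cell viability assay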
Description: SANGER: Inhibition of human NCI-H526 cell growth in a cell viability assay.

RH-1 = conditions: Homo sapiens, RH-1;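 also: growth inhibition of human RH-1 cells, read out with a cell viability assay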
Description: SANGER: Inhibition of human RH-1 cell growth in a cell viability assay.

HDLM-2 = conditions: Homo sapiens, HDLM-2;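 also: cell viability assay measuring suppression of HDLM-2 proliferation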
Description: SANGER: Inhibition of human HDLM-2 cell growth in a cell viability assay.

OVCAR-4 = conditions: Homo sapiens, OVCAR-4;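 also: growth inhibition of human OVCAR-4 cells, measured with a cell viability assay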
Description: SANGER: Inhibition of human OVCAR-4 cell growth in a cell viability assay.

MS-1 = conditions: Homo sapiens, MS-1;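 also: growth inhibition of MS-1 cells, read out by cell viability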
Description: SANGER: Inhibition of human MS-1 cell growth in a cell viability assay.

K562 = conditions: Homo sapiens, K562
Description: SANGER: Inhibition of human K-562 cell growth in a cell viability assay.

NCI-H1581 = conditions: Homo sapiens, NCI-H1581;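 also: cell growth inhibition read out by a viability assay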
Description: SANGER: Inhibition of human NCI-H1581 cell growth in a cell viability assay.

SCC-15 = conditions: Homo sapiens, SCC-15;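 also: growth inhibition of SCC-15 cells, read out with a cell viability assay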
Description: SANGER: Inhibition of human SCC-15 cell growth in a cell viability assay.

COc1cc(N2CCN(C)CC2)ccc1Nc1ncc2c(n1)N(C)c1ccccc1C(=O)N2C
IC50 (NB17): > 8 µM | IC50 (CGTH-W-1): > 8 µM | IC50 (no-11): > 8 µM | IC50 (EW-1): 3.84 µM | IC50 (DJM-1): > 8 µM | IC50 (OCI-AML2): 3.6 µM | IC50 (LS-123): > 8 µM | IC50 (SCH): > 8 µM | IC50 (Ramos-2G6-4C10): 5.67 µM | IC50 (RPMI-8226): > 8 µM | IC50 (NCI-H1770): 4.74 µM | IC50 (SW 954): 4.85 µM | IC50 (GAK): > 8 µM | IC50 (U-266): > 8 µM | IC50 (SF-268): 7.55 µM | IC50 (UACC-257): 7.11 µM | IC50 (TE-6): > 8 µM | IC50 (MOLT-4): > 8 µM | IC50 (DU-4475): > 8 µM | IC50 (OCUB-M): > 8 µM | IC50 (KINGS-1): > 8 µM | IC50 (IST-MEL1): > 8 µM | IC50 (NCI-H1304): > 8 µM | IC50 (RXF 393): > 8 µM | IC50 (D-247MG): 1.58 µM | IC50 (NB10): > 8 µM | IC50 (LOX IMVI): > 8 µM | IC50 (SK-MEL-2): > 8 µM | IC50 (RPMI-8866): > 8 µM | IC50 (PSN1): > 8 µM | IC50 (DMS-79): > 8 µM | IC50 (KALS-1): 7.78 µM | IC50 (HCC 2998): > 8 µM | IC50 (Mo): > 8 µM | IC50 (GB-1): > 8 µM | IC50 (EW-18): > 8 µM | IC50 (L-363): > 8 µM | IC50 (BV-173): 7.43 µM | IC50 (NCI-H526): > 8 µM | IC50 (RH-1): > 8 µM | IC50 (HDLM-2): > 8 µM | IC50 (OVCAR-4): > 8 µM | IC50 (MS-1): 4.67 µM | IC50 (K562): > 8 µM | IC50 (NCI-H1581): > 8 µM | IC50 (SCC-15): > 8 µM

CC[C@H](CO)Nc1nc(NCc2ccccc2)c2ncn(C(C)C)c2n1 [SELICICLIB]
IC50 (NB17): > 16 µM | IC50 (CGTH-W-1): > 16 µM | IC50 (no-11): > 16 µM | IC50 (EW-1): > 16 µM | IC50 (DJM-1): > 16 µM | IC50 (OCI-AML2): 15.6 µM | IC50 (LS-123): > 16 µM | IC50 (SCH): > 16 µM | IC50 (Ramos-2G6-4C10): > 16 µM | IC50 (RPMI-8226): > 16 µM | IC50 (NCI-H1770): > 16 µM | IC50 (SW 954): > 16 µM | IC50 (U-266): > 16 µM | IC50 (SF-268): > 16 µM | IC50 (UACC-257): > 16 µM | IC50 (TE-6): > 16 µM | IC50 (MOLT-4): > 16 µM | IC50 (DU-4475): > 16 µM | IC50 (OCUB-M): > 16 µM | IC50 (KINGS-1): > 16 µM | IC50 (IST-MEL1): > 16 µM | IC50 (NCI-H1304): > 16 µM | IC50 (RXF 393): > 16 µM | IC50 (D-247MG): 12.4 µM | IC50 (NB10): > 16 µM | IC50 (LOX IMVI): > 16 µM | IC50 (SK-MEL-2): > 16 µM | IC50 (RPMI-8866): > 16 µM | IC50 (PSN1): > 16 µM | IC50 (DMS-79): > 16 µM | IC50 (KALS-1): > 16 µM | IC50 (HCC 2998): > 16 µM | IC50 (Mo): > 16 µM | IC50 (GB-1): > 16 µM | IC50 (EW-18): > 16 µM | IC50 (L-363): > 16 µM | IC50 (BV-173): > 16 µM | IC50 (NCI-H526): > 16 µM | IC50 (RH-1): > 16 µM | IC50 (HDLM-2): > 16 µM | IC50 (OVCAR-4): > 16 µM | IC50 (MS-1): > 16 µM | IC50 (K562): > 16 µM | IC50 (NCI-H1581): > 16 µM | IC50 (SCC-15): > 16 µM
